Measured values as given in patent EP0427078A1, “Folinic acid-cyclodextrin inclusion compound” (MAGIS FARMACEUTICI S.p.A., priority 1989, dated 1991).

Tests used:
[1] = type: physicochemical
[2] = Acute toxicity (LD50) in the mouse; conditions: in vivo, read-out: LD₅₀

Nc1nc(=O)c2c([nH]1)NCC(CNc1ccc(C(=O)NC(CCC(=O)O)C(=O)O)cc1)N2C=O (stereo not shown) [Calcium folinate, calcium folinate]
STABILITY AT pH 2 MICROBIOLOGICAL TITRE AFTER 3 MONTHS [1]: 40% | STABILITY AT pH 2 MICROBIOLOGICAL TITRE AFTER 6 MONTHS [1]: 20% | STABILITY AT pH 2 MICROBIOLOGICAL TITRE TIME 0 [1]: 100% | LD50 [2]: > 7000 mg/kg
